In the NIST ThermoML archive (doi:10.1021/je300017m):
Numbers after ± are expanded uncertainties.

Assay: mn = molality of the nth substance listed, in mol/kg
Conditions: 101 kPa, Liquid

CCCCn1cc[n+](C)c1.[Br-] [1-butyl-3-methylimidazolium bromide] + C[S+](C)[O-]
Conditions	mass density [kg/m3]
293.15 K, m1 = 0.00417	1100.42 ± 0.29
293.15 K, m1 = 0.00643	1100.53 ± 0.29
293.15 K, m1 = 0.00951	1100.68 ± 0.29
293.15 K, m1 = 0.01236	1100.82 ± 0.29
293.15 K, m1 = 0.015	1100.95 ± 0.29
293.15 K, m1 = 0.01784	1101.09 ± 0.29
293.15 K, m1 = 0.02066	1101.23 ± 0.29
293.15 K, m1 = 0.02307	1101.35 ± 0.29
293.15 K, m1 = 0.02628	1101.51 ± 0.29
293.15 K, m1 = 0.02848	1101.62 ± 0.29
303.15 K, m1 = 0.00497	1090.6 ± 0.28
303.15 K, m1 = 0.00823	1090.76 ± 0.28
303.15 K, m1 = 0.01126	1090.91 ± 0.28
303.15 K, m1 = 0.01409	1091.05 ± 0.28
303.15 K, m1 = 0.01689	1091.19 ± 0.28
303.15 K, m1 = 0.02008	1091.35 ± 0.28
303.15 K, m1 = 0.02326	1091.51 ± 0.28
303.15 K, m1 = 0.02642	1091.67 ± 0.28
303.15 K, m1 = 0.02917	1091.82 ± 0.28
303.15 K, m1 = 0.03153	1091.94 ± 0.28
308.15 K, m1 = 0.00514	1085.66 ± 0.28
308.15 K, m1 = 0.00817	1085.81 ± 0.28
308.15 K, m1 = 0.01139	1085.97 ± 0.28
308.15 K, m1 = 0.01418	1086.11 ± 0.28
308.15 K, m1 = 0.01696	1086.25 ± 0.28
308.15 K, m1 = 0.01992	1086.41 ± 0.28
308.15 K, m1 = 0.02347	1086.59 ± 0.28
308.15 K, m1 = 0.0264	1086.74 ± 0.28
308.15 K, m1 = 0.02914	1086.88 ± 0.28
308.15 K, m1 = 0.03167	1087.01 ± 0.28
313.15 K, m1 = 0.00489	1080.7 ± 0.27
313.15 K, m1 = 0.00769	1080.83 ± 0.27
313.15 K, m1 = 0.01069	1080.98 ± 0.27
313.15 K, m1 = 0.01325	1081.11 ± 0.28
313.15 K, m1 = 0.01542	1081.23 ± 0.28
313.15 K, m1 = 0.01934	1081.43 ± 0.28
313.15 K, m1 = 0.02264	1081.6 ± 0.28
313.15 K, m1 = 0.02575	1081.76 ± 0.28
313.15 K, m1 = 0.02845	1081.9 ± 0.28
313.15 K, m1 = 0.03154	1082.06 ± 0.28

CCCCCCCCCCn1cc[n+](C)c1.[Br-] [1-decyl-3-methylimidazolium bromide] + C[S+](C)[O-]
Conditions	mass density [kg/m3]
293.15 K, m1 = 0.00402	1100.27 ± 0.28
293.15 K, m1 = 0.00649	1100.3 ± 0.28
293.15 K, m1 = 0.00933	1100.34 ± 0.28
293.15 K, m1 = 0.01163	1100.38 ± 0.28
293.15 K, m1 = 0.0141	1100.41 ± 0.28
293.15 K, m1 = 0.0167	1100.45 ± 0.28
293.15 K, m1 = 0.01877	1100.49 ± 0.28
293.15 K, m1 = 0.02117	1100.53 ± 0.28
293.15 K, m1 = 0.02341	1100.56 ± 0.28
293.15 K, m1 = 0.02766	1100.63 ± 0.28
303.15 K, m1 = 0.00542	1090.45 ± 0.28
303.15 K, m1 = 0.00729	1090.48 ± 0.28
303.15 K, m1 = 0.00969	1090.52 ± 0.28
303.15 K, m1 = 0.01151	1090.55 ± 0.28
303.15 K, m1 = 0.01339	1090.58 ± 0.28
303.15 K, m1 = 0.01545	1090.61 ± 0.28
303.15 K, m1 = 0.01741	1090.65 ± 0.28
303.15 K, m1 = 0.01809	1090.66 ± 0.28
303.15 K, m1 = 0.01996	1090.69 ± 0.28
308.15 K, m1 = 0.00501	1085.49 ± 0.27
308.15 K, m1 = 0.00676	1085.52 ± 0.27
308.15 K, m1 = 0.01153	1085.59 ± 0.27
308.15 K, m1 = 0.01415	1085.64 ± 0.27
308.15 K, m1 = 0.01624	1085.68 ± 0.27
308.15 K, m1 = 0.0184	1085.72 ± 0.27
308.15 K, m1 = 0.02101	1085.76 ± 0.27
308.15 K, m1 = 0.0233	1085.8 ± 0.27
313.15 K, m1 = 0.00484	1080.52 ± 0.27
313.15 K, m1 = 0.0071	1080.56 ± 0.27
313.15 K, m1 = 0.00963	1080.6 ± 0.27
313.15 K, m1 = 0.01229	1080.65 ± 0.27
313.15 K, m1 = 0.01489	1080.69 ± 0.27
313.15 K, m1 = 0.01739	1080.74 ± 0.27
313.15 K, m1 = 0.0195	1080.78 ± 0.27
313.15 K, m1 = 0.02205	1080.82 ± 0.27
313.15 K, m1 = 0.02449	1080.87 ± 0.27
